Measured values published in US20050054103A1, “Expansion of renewable stem cell populations using modulators of PI 3-kinase” (priority 2003, published 2005).

System: CD34 cells
Test: Transition metal chelators in CD34+ cell liquid cultures (cell number, CD34 cells, clonability)
Format: cell-based, human
Conditions: for Cells/ml (×10^4): FL, SCF, IL-6 50 ng/ml; for CFU expansion (fold): CFU day 7 / CFU day 0
Protocol: The interphase layer of mononuclear cells were collected, washed three times with Ca/Mg free phosphate buffered saline containing 1% bovine serum albumin (BSA). The cells were incubated for 30 min. at 4° C. with murine monoclonal anti CD34 antibody (0.5 μg/10^6 mononuclear cells) and thereafter isolated using the miniMACS apparatus (Miltenyi-Biotec, Bergisch, Gladbach, Germany) according to the manufacturer's protocol.
Culture procedures: For the expansion of progenitor cells, CD34^+ enriched fractions or unseparated mononuclear cells were seeded at about 1-3×10^4 cells/ml in either alpha minimal essential medium containing 10% preselected fetal calf serum (FCS) (both from GIBCO, Grand Island, N.Y.), or serum-free medium (Progenitor-34 medium, Life Technologies, Grand Island, N.Y.). The media were supplemented with a mixture of growth factors and transition metal chelators. The cultures were incubated at 37° C. in an atmosphere of 5% CO2 in air with extra humidity. Half of the medium was changed weekly with fresh medium containing all the supplements.
Cloning potential evaluations: The cloning potential of cells developed in the liquid culture was assayed, at different intervals, in semi-solid medium. The cells were washed and seeded in 35 mm dishes in methylcellulose containing alpha medium supplemented with recombinant growth factors (SCF, G-CSF, GM-CSF and EPO). Following 2 weeks incubation, the cultures were scored with an inverted microscope. Colonies were classified as blast, mixed, erythroid, myeloid, and megakaryocytic, according to their cellular composition.
Morphological assessment: In order to characterize the resulting culture populations, aliquots of cells were deposited on a glass slide (cytocentrifuge, Shandon, Runcorn, UK), fixed and stained in May-Grunwald Giemsa. Other aliquots were stained by benzidine for intracellular hemoglobin.
Immunofluorescence staining: At different intervals, cells from the liquid cultures were assayed for CD34 antigen. Aliquots were harvested, washed and incubated on ice with FITC-labeled anti CD45 monoclonal antibody and either PE-labeled anti CD34 (HPCA-2) monoclonal antibody or PE-labeled control mouse Ig. After incubation, red cells were lysed with lysing solution, while the remaining cells were washed and analyzed by flow cytometer.
Flow cytometry: Cells were analyzed and sorted using FACStar^plus flow cytometer (Becton-Dickinson, Immunofluorometry systems, Mountain View, Calif.). Cells were passed at a rate of 1,000 cells/second through a […] nozzle, using saline as the sheath fluid. […] The PMTs was set at the appropriate voltage. Logarithmic amplification was applied for measurements of fluorescence and linear amplification—for forward light scatter. At least 10^4 cells were analyzed.
Cord blood-derived CD34 cells were plated in liquid culture in the presence of: FL—50 ng/ml, SCF—50 ng/ml, IL-6—50 ng/ml, with or without IL-3—20 ng/ml, with or without TEPA—10 μM. On day 7, the percentage of CD34 cells and the total cell number were determined. Aliquots equivalent to 1×10^3 initiating cells were assayed on days 0 and 7 for colony forming cells (CFU) by cloning in semi-solid medium. CFU expansion represents the ratio of CFU present on day 7 to CFU present on day 0.
CD34^+ cells derived from human neonatal cord blood were purified by immunomagnetic method and then cultured in liquid medium supplemented with cytokines either with or without transition metal chelators. At weekly intervals, the cultures were demi-depopulated by removing half of the culture content (supernatant and cells) and replacing it with fresh medium, cytokines and the chelators. At the indicated weeks the cellular content of the cultures were quantified for total cells (by a manual microscopic/hemocytometric method), for CD34^+ cells (by immuno-flow cytometry) and for clonogenic cells (by cloning the cells in cytokine-supplemented semi-solid medium).

[1] = TEPA 10 μM, without IL-3, day 7

## NCCNCCNCCNCCN [TEPA, tetraethylenepentamine]
  effect on differentiation of CD34+ cells: inhibit differentiation
TEPA 10 μM, with IL-3 20 ng/ml, day 7
  Cells/ml (×10^4): 11 ×10^4
[1]
  Cells/ml (×10^4): 2 ×10^4
  CD34 cells (%): 11.5%
  Colonies (Per 1 × 10^3 initiating cells): 140
TEPA 10 μM, with IL-3, day 7
  CD34 cells (%): 20%
  Colonies (Per 1 × 10^3 initiating cells): 850
TEPA 10 μM, with IL-3
  CFU expansion (fold): 17 fold
TEPA 10 μM, without IL-3
  CFU expansion (fold): 2.8 fold
After 6 weeks
  CFUc expansion: 120 fold
After 6 weeks, started with 2.5×10^3 CFUc
  CFUc content of cultures: 300×10^3 CFUc
early-acting cytokines, no stromal cells, TEPA 10 μM
  time long-term CD34 cultures could be maintained: > 6 weeks
Long term cultures with early cytokines
  cell proliferation and CFUc expansion in long-term CD34 cultures: more effective than the short-chain polyamines
Polyamine chelating agents, long-term CD34 cultures (FIGS. 39a-b)
  concentration with optimal activity: 40 µM
Transition metal chelating agents, long-term CD34 cultures (FIGS. 40a-b)
  concentration with optimal activity: 10 µM
